# Assay results published in patent publication US20210023074A1, “TREATMENT OF DEMYELINATING DISEASES” (Victoria Link Ltd., priority 2018, published 2021).
# Read-outs that look alike come from different tables or passages of the source.
# What was measured:
# [1] = tested on: cuprizone-induced demyelination in mice; assay: Cuprizone demyelination disease model, TEM of corpus callosum, g-ratio; type: in vivo, C57BL/6 mice; settings: 0.3% cuprizone diet, 0.01 mg/kg i.p. daily from day 28, day 70
# Protocol: Experimental details: A demyelinating disease state was induced in female C57BL/6 mice (8-14 weeks old and between 17-23 grams in weight). The mice were fed cuprizone-containing chow (0.3% (w/w) cuprizone) or chow only (normal controls) for 35 days, at which point they were switched back to standard chow. At day 28, mice were started on daily treatment with vehicle only (DMSO: Tween 80: Saline) or nalmefene at 0.01 mg/kg by i.p. injection. On day 70, mice were culled and brain tissue were processed for transmission electron microscopy (TEM). Mice were weighed daily and the % weight change calculated.
# Experimental details: A demyelinating disease state was induced in female C57BL/6 mice as described in FIG. 19A. FIGS. 19A-C show representative Transmission Electron Microscopy (TEM) images of the corpus callosum of mice (A) fed normal diet and (B-C) fed 0.3% cuprizone to induce demyelination. Following the time course described in FIG. 19A, cuprizone fed mice were administered (B) vehicle only treatment, and (C) nalmefene (0.01 mg/kg/i.p.) and then sacrificed on experimental day 70. Scale bars represent 2000 nm.
# Mice fed a normal diet have a mean g-ratio of 0.78±0.09 in contrast to mice fed 0.3% cuprizone that have a significant increase in g-ratio of 0.84±0.1 corresponding to the decreased myelin thickness (####p<0.0001). […] Data represents measurements of 5 TEM images of the corpus callosum from 2-3 mice per treatment group and g-ratios calculated (a measure of myelin thickness) using Image J software. Analysis was performed by individuals blinded to treatment groups. (n=200-400 axons per treatment group). All data analysed by one-way ANOVA followed by Turkeys multiple comparisons test.
# [2] = tested on: Alcohol consumption (Wistar and AA rat); settings: cited from earlier work
# [3] = Alcohol consumption (AA rat), PO
structure (smiles),measurement,setting,value
"C=C1CC[C@@]2(O)[C@H]3Cc4ccc(O)c5c4[C@@]2(CCN3CC2CC2)[C@H]1O5 [nalmefene, (4R,4aS,7aS,12bS)-3-(cyclopropylmethyl)-7-methylidene-2,4,5,6,7a,13-hexahydro-1H-4,12-methanobenzofuro[3,2-e]isoquinoline-4a,9-diol]",axonal-myelin structure and remyelination (TEM),[1],"more normal axonal-myelin structure and organisation, and increased remyelination"
same,"g-ratio (measure of myelin thickness), corpus callosum",[1],0.791±0.01
same,g-ratio compared to vehicle,[1],significantly lower g-ratio compared to vehicle only treated
same,ED50,[2]; [3],16.1 μg/kq
same,Inhibition (%),[2]; [3],23%
same,Inhibition (%),"[2]; Alcohol consumption (Wistar and AA rat), SC, 4 days",73%
same,Inhibition (%),"[2]; Alcohol consumption (Wistar and AA rat), SC, 26 days",67%
same,Inhibition (%),"[2]; Alcohol consumption (Wistar rat), SC, 6 days",75%
same,In vivo efficacy ED50,"[2]; SC administration, rat",0.2 to 0.4 mg/kg
